From PubChem BioAssay (NCI)
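Interpolation was linear, between the two tested concentrations surrounding the appropriate level; five concentrations were tested over 48 hours in 96-well plates. TGI marks complete inhibition of growth.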

Columns and labels:
Test in all cases: inhibition of tumour cell growth, NCI panel, 48 h
[1] = system: 786-0 renal
[2] = system: A498 renal
[3] = system: A549 NSCLC
[4] = system: ACHN renal
[5] = system: BT-549 breast
[6] = system: CAKI-1 renal
[7] = system: COLO 205 colon
[8] = system: DU-145 prostate
[9] = system: EKVX NSCLC
[10] = system: HCC-2998 colon
[11] = system: HCT-116 colon
[12] = system: HCT-15 colon
[13] = system: HOP-62 NSCLC
[14] = system: HOP-92 NSCLC
[15] = system: HS 578T breast
[16] = system: HT29 colon
[17] = system: IGROV1 ovarian
[18] = system: K-562 leukemia
[19] = system: KM12 colon
[20] = system: LOX IMVI melanoma
[21] = system: M14 melanoma
[22] = system: MALME-3M melanoma
[23] = system: MCF7 breast
[24] = system: MDA-MB-231 breast
[25] = system: MDA-MB-435
[26] = system: MDA-N
[27] = system: MOLT-4 leukemia
[28] = system: NCI-H226 lung
[29] = system: NCI-H23 lung
[30] = system: NCI-H460 lung
[31] = system: NCI-H522 lung
[32] = system: NCI/ADR-RES ovarian
[33] = system: OVCAR-3 ovarian
[34] = system: OVCAR-4 ovarian
[35] = system: OVCAR-5 ovarian
[36] = system: OVCAR-8 ovarian
[37] = system: PC-3 prostate
[38] = system: RPMI-8226 leukemia
[39] = system: RXF 393 renal
[40] = system: SF-268 CNS
[41] = system: SF-295 CNS
[42] = system: SF-539 CNS
[43] = system: SK-MEL-2 melanoma
[44] = system: SK-MEL-28 melanoma
[45] = system: SK-MEL-5 melanoma
[46] = system: SK-OV-3 ovarian
[47] = system: SN12C renal
[48] = system: SNB-19 CNS
[49] = system: SNB-75 CNS
[50] = system: SR leukemia
[51] = system: SW-620 colon
[52] = system: T-47D breast
[53] = system: TK-10 renal
[54] = system: U251 CNS
[55] = system: UACC-257 melanoma
[56] = system: UACC-62 melanoma
[57] = system: UO-31 renal
[58] = system: HL-60(TB) leukemia

## O=C1c2c(Br)sc(Br)c2[C@H]2OC(=S)N[C@@H]12
[1]
  TGI: 27 µM
[2]
  TGI: 32.5 µM
[3]
  TGI: 37.5 µM
[4]
  TGI: 11.1 µM
[5]
  TGI: 23.8 µM
[6]
  TGI: 7.81 µM
[7]
  TGI: 5.58 µM
[8]
  TGI: 26.9 µM
[9]
  TGI: 11.4 µM
[10]
  TGI: 22.4 µM
[11]
  TGI: 7.6 µM
[12]
  TGI: 3.76 µM
[13]
  TGI: 30.7 µM
[14]
  TGI: 27.3 µM
[15]
  TGI: > 52.7 µM
[16]
  TGI: 4.05 µM
[17]
  TGI: 23.9 µM
[18]
  TGI: 6.35 µM
[19]
  TGI: 38.8 µM
[20]
  TGI: 10.9 µM
[21]
  TGI: 4.1 µM
[22]
  TGI: 10.4 µM
[23]
  TGI: 23.2 µM
[24]
  TGI: 25 µM
[25]
  TGI: 8.65 µM
[26]
  TGI: 16.9 µM
[27]
  TGI: 5 µM
[28]
  TGI: 33.5 µM
[29]
  TGI: 15.1 µM
[30]
  TGI: 34.2 µM
[31]
  TGI: 3.4 µM
[32]
  TGI: 31.6 µM
[33]
  TGI: 7.26 µM
[34]
  TGI: 13.3 µM
[35]
  TGI: 32.4 µM
[36]
  TGI: 12 µM
[37]
  TGI: 14 µM
[38]
  TGI: 40.3 µM
[39]
  TGI: 8.8 µM
[40]
  TGI: 12 µM
[41]
  TGI: 30.1 µM
[42]
  TGI: 31.2 µM
[43]
  TGI: 29 µM
[44]
  TGI: 7.94 µM
[45]
  TGI: 23.8 µM
[46]
  TGI: 29.9 µM
[47]
  TGI: 8.7 µM
[48]
  TGI: 30 µM
[49]
  TGI: 31 µM
[50]
  TGI: 5.19 µM
[51]
  TGI: 5.84 µM
[52]
  TGI: 44.2 µM
[53]
  TGI: 35 µM
[54]
  TGI: 7.08 µM
[55]
  TGI: 17.1 µM
[56]
  TGI: 24.1 µM
[57]
  TGI: 3.34 µM

## COc1ccc(C(=C2C(=O)OC(=O)C2=C(C)C)c2ccc(OC)cc2)cc1
[1]
  TGI: > 100 µM
[2]
  TGI: > 100 µM
[3]
  TGI: > 100 µM
[4]
  TGI: > 100 µM
[5]
  TGI: > 100 µM
[6]
  TGI: > 100 µM
[7]
  TGI: > 100 µM
[8]
  TGI: > 100 µM
[9]
  TGI: > 100 µM
[10]
  TGI: > 100 µM
[11]
  TGI: > 100 µM
[12]
  TGI: > 100 µM
[58]
  TGI: 84.3 µM
[13]
  TGI: > 100 µM
[14]
  TGI: > 100 µM
[15]
  TGI: > 100 µM
[16]
  TGI: > 100 µM
[17]
  TGI: > 100 µM
[19]
  TGI: > 100 µM
[20]
  TGI: > 100 µM
[21]
  TGI: > 100 µM
[22]
  TGI: > 100 µM
[23]
  TGI: > 100 µM
[24]
  TGI: > 100 µM
[25]
  TGI: > 100 µM
[26]
  TGI: > 100 µM
[27]
  TGI: > 100 µM
[28]
  TGI: > 100 µM
[29]
  TGI: > 100 µM
[30]
  TGI: > 100 µM
[31]
  TGI: 55.7 µM
[32]
  TGI: > 100 µM
[33]
  TGI: 47.5 µM
[34]
  TGI: 92.5 µM
[35]
  TGI: > 100 µM
[36]
  TGI: > 100 µM
[37]
  TGI: > 100 µM
[38]
  TGI: > 100 µM
[39]
  TGI: > 100 µM
[40]
  TGI: > 100 µM
[41]
  TGI: > 100 µM
[42]
  TGI: > 100 µM
[43]
  TGI: > 100 µM
[44]
  TGI: > 100 µM
[45]
  TGI: > 100 µM
[46]
  TGI: > 100 µM
[47]
  TGI: > 100 µM
[48]
  TGI: > 100 µM
[49]
  TGI: > 100 µM
[50]
  TGI: > 100 µM
[51]
  TGI: > 100 µM
[52]
  TGI: > 100 µM
[53]
  TGI: > 100 µM
[54]
  TGI: > 100 µM
[55]
  TGI: > 100 µM
[56]
  TGI: > 100 µM
[57]
  TGI: > 100 µM

## COc1cc2c3cc1Oc1cc(ccc1O)C[C@@H]1c4c(cc(OC)c(O)c4Oc4ccc(cc4)C[C@@H]3[N+](C)(C)CC2)CC[N+]1(C)C
[1]
  TGI: > 100 µM
[2]
  TGI: > 100 µM
[3]
  TGI: > 100 µM
[4]
  TGI: > 100 µM
[5]
  TGI: > 100 µM
[6]
  TGI: > 100 µM
[7]
  TGI: > 100 µM
[8]
  TGI: > 100 µM
[9]
  TGI: > 100 µM
[11]
  TGI: > 100 µM
[12]
  TGI: > 100 µM
[58]
  TGI: > 100 µM
[13]
  TGI: > 100 µM
[14]
  TGI: > 100 µM
[15]
  TGI: 85.1 µM
[16]
  TGI: > 100 µM
[17]
  TGI: > 100 µM
[18]
  TGI: > 100 µM
[19]
  TGI: > 100 µM
[20]
  TGI: 42.5 µM
[21]
  TGI: 30.4 µM
[22]
  TGI: 74.4 µM
[23]
  TGI: > 100 µM
[24]
  TGI: > 100 µM
[25]
  TGI: > 100 µM
[26]
  TGI: > 100 µM
[27]
  TGI: > 100 µM
[28]
  TGI: > 100 µM
[29]
  TGI: > 100 µM
[30]
  TGI: > 100 µM
[31]
  TGI: > 100 µM
[32]
  TGI: > 100 µM
[33]
  TGI: > 100 µM
[34]
  TGI: > 100 µM
[35]
  TGI: > 100 µM
[36]
  TGI: > 100 µM
[37]
  TGI: > 100 µM
[38]
  TGI: > 100 µM
[39]
  TGI: 47 µM
[40]
  TGI: > 100 µM
[41]
  TGI: 50.5 µM
[42]
  TGI: 28.3 µM
[43]
  TGI: > 100 µM
[44]
  TGI: > 100 µM
[45]
  TGI: > 100 µM
[47]
  TGI: > 100 µM
[48]
  TGI: > 100 µM
[50]
  TGI: > 100 µM
[51]
  TGI: > 100 µM
[52]
  TGI: 71.2 µM
[53]
  TGI: > 100 µM
[54]
  TGI: > 100 µM
[55]
  TGI: > 100 µM
[56]
  TGI: > 100 µM
[57]
  TGI: > 100 µM
